Patent US9707239B2, “Compounds that modulate oxidative stress” (vTv Therapeutics LLC, priority 2011, dated 2017)
Entries after “also recorded” stand apart in the source; their conditions may differ.

Experiments:
Assay type in all cases: cell-based, human
[1] = system: TXNRD1; assay: mRNA expression (Quantigene Plex) in NHLF cells: TXNRD1; conditions: Table 5, 6 h, mRNA normalized to GAPDH, above DMSO treated cells
Procedure: (§1) Secondary growth of NHLF cells were used for all assays. Cell were thawed and then placed into culture in T225 flasks. The cells were grown to 80% confluency and harvested by washing once with HEPES buffered saline solution and then trypsinizing. Equal numbers (7×10^3 cells per well) of NHLF cells were plated in 96 well tissue culture plates (Corning). Cells were incubated overnight in FGM-2 medium prior to exposure to compound. Cells were treated with either DMSO or a compound as described below for 6 h. Preparation of cell lysates was carried out according to instructions using the Quantigene Reagent system 2.0 protocol (Panomics). mRNA induction was detected from cell lysate using the Quantigene Plex 2.0 Assay Kit (Panomics) on the Luminex platform (BIO-RAD). Expression of GAPDH mRNA was used as the internal control for the Quantigen Plex 2.0 Assay. The data in Tables 5 and 6 represents the fold change of target mRNA expression, normalized to control values, above DMSO treated cells.

[2] = system: Nrf2; assay: HMOX1 mRNA induction after Nrf2 siRNA silencing; conditions: NHLF cells, 50 nM siRNA 48 hours, FIG. 5
Procedure: Small interfering RNA targeting Nrf-2 (cat# SI03246614) or KEAP-1 (cat# SI03246439) were obtained from Qiagen at 20 nmol/tube. Negative control siRNA (cat#1027280) was also obtained from Qiagen. Lyophilized siRNA in each tube was resuspended with 1 ml of the provided siRNA Suspension Buffer to make a stock solution of 20 μM and tubes were heated at 90° C. for one minute and then at 37° C. for one hour prior to initial use.
Normal human lung fibroblasts were plated at 5000 cells/well in 96-well plates and allowed to attach. Prior to experiments, well s containing the cells were refreshed with 30 μl of complete growth medium. For each siRNA type, a 4× concentration (200 nM) of siRNA was prepared by adding 11 μl of siRNA stock into 1.1 ml of serum-free medium containing 9 μl/ml of SILENTFECT Lipid Reagent (BioRad, cat#170-3361). This solution was incubated at room temperature for 20 minutes prior to adding 10 μl into each well for a final concentration of 50 nM siRNA. Cells were incubated with siRNA for 48 hours, after which they were treated with compound for either 5 hours (QuantiGene RNA assay) or 15 hours (protein immunofluorescence assay).
The predicted response profile is that silencing of Nrf2 should reduce the amount of HMOX1 induction by Compound 13 and other HMOX1 inducers that are electrophiles or reactive compounds. To that end, Compound 13 and other tool compounds were tested in cells that were treated with siRNA directed to Nrf2. Following gene silencing with specific siRNA or control siRNA, the ability of tool compounds to induce HMOX1 mRNA was determined.

[3] = system: HMOX1; assay: Effect of NAC on compound induction of HMOX gene expression; conditions: NHLF cells pretreated with 5 mM NAC 1 hr, compound 6 h, FIG. 4
Procedure: NHLF cells were grown to 80% confluency and harvested by washing once with HEPES and then trypsinizing. Equal numbers (7×10^4 cells per well) of NHLF cells were plated in 96 well tissue culture (Corning) plates. Cells were incubated overnight in FGM-2 medium prior to exposure to compound. Cells were pretreated with 5 mM N-acetyl cysteine for 1 hr. Cells were treated with either DMSO or compound for 6 h. Preparation of cell lysates was carried out according to Quantigene Reagent system 2.0 protocol (Panomics). Heme oxygenase mRNA induction was detected from cell lysate using the Quantigene Plex 2.0 Assay Kit (Panomics) on the Luminex platform (BIO-RAD). Expression of GAPDH mRNA was used as the internal control for the Quantigen Plex 2.0 Assay. Heme oxygenase data represents the fold change, normalized to control values, above DMSO treated cells.
A further test of the hypothesis that Compound 13 induces HMOX1 with minimal alteration of cellular redox levels or chemical reactivity was carried out by treating cells with N-acetyl cysteine (NAC). This compound acts to restore cellular glutathione levels and thus prevent oxidative stress. The degree to which NAC can suppress HMOX1 induction is an indicator of the amount of chemical reactivity or ROS stress that a compound is imposing on the cell and thus activating phase II gene transcription. […] Coupled with the data shown in FIG. 3, it is concluded that Compound 13 induces HMOX1 with minimal elevation of ROS or NAC-sensitive chemical reactivity.

[4] = system: NQO1; assay: mRNA expression (Quantigene Plex) in NHLF cells: NQO1; conditions: Table 5, 6 h, mRNA normalized to GAPDH, above DMSO treated cells
Procedure: as §1

[5] = system: NHLF cells; assay: ROS measurements (H2DCF-DA imaging); conditions: 1 hr, cell-by-cell imaging, FIG. 3A/3B
In short: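 Secondary-passage NHLF cells (2,000/well, overnight) loaded 30 min with H2DCF-DA, 10 μM ferric ammonium citrate and Hoechst, washed, then treated with compound in FBM-2 medium 1 h at 37 °C, 5% CO2. ROS quantified by automated fluorescence imaging of DCF signal.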

[6] = system: ATF4; assay: mRNA expression (Quantigene Plex) in NHLF cells: ATF4; conditions: Table 5, 6 h, mRNA normalized to GAPDH, above DMSO treated cells
Procedure: as §1

Structure (SMILES): O=C(Nc1ccc2cn[nH]c2c1)c1ccc2[nH]c(Nc3nc4ccccc4s3)nc2c1 [Compound 13, 2-(Benzothiazol-2-ylamino)-1H-benzoimidazole-5-carboxylic acid (1H-indazol-6-yl)-amide]
- TXNRD1 (fold induction) [1]: shown to induce
- TXNRD1 (fold induction) ([1]; listed as #13): 1.5 fold induction
- HMOX1 mRNA induction with siRNA directed to Nrf2 [2]: affected by the presence of the siRNA for Nrf2; also recorded: requires Nrf2 for full induction of HMOX1 mRNA
- effect of N-acetyl cysteine (NAC) on HMOX1 induction [3]: induces the greatest amount of HMOX1 with the least impact by NAC; also recorded: still induces HMOX1 expression in the presence of NAC
- NQO1 (fold induction) [4]: shown to induce
- NQO1 (fold induction) ([4]; listed as #13): 2.2 fold induction
- ROS production (in words) [5]: modestly elevated ROS production; also recorded: little increase in ROS production
- ATF4 (fold induction) [6]: 1.2 fold induction
